Test results from patent publication US11034650B2, “Compounds useful for treating a Mannheimia haemolytica or Histophilus somni infection” (Intervet Inc., priority 2016, dated 2021).
In brackets after ≈: the same amount, converted by molar mass.

test system: Mannheimia haemolytica MH 6357 (M7/2, reference strain, cattle infection strain); test: MIC, broth-microdilution (CLSI VET01-A4), strain MH 6357; format: cell-based; details: Mannheimia haemolytica strain MH 6357, broth-microdilution; unit assumed
Method in brief: (§1)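 Read-out is unaided visual inspection for turbidity. The minimum inhibitory concentration is the lowest tested level without detectable growth across a two-fold compound series.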

Structure (SMILES) | MIC MH 6357
Cc1ccc(CNCc2ccc(C#Cc3ccc(C(=O)N[C@H](C(=O)NO)C(C)(C)S(C)(=O)=O)cc3)cc2)cc1 [Compound 272] | 0.8 µg/mL (≈ 1.46 µM)
CC(=O)C(NC(=O)c1ccc(C#Cc2ccc(CNCc3ccncc3)cc2)cc1)C(=O)NO (stereo not drawn) [Compound 402] | 6.3 µg/mL (≈ 13.8 µM)
CC(C)([C@H](NC(=O)c1ccc(C#Cc2ccc(CNCc3cccnc3)cc2)cc1)C(=O)NO)S(C)(=O)=O [C.267] | 0.8 µg/mL (≈ 1.5 µM)
CC[C@H](C)[C@H](NC(=O)c1ccc(C#Cc2ccc(CNCc3cccs3)cc2)cc1)C(=O)NO [Compound 182] | 0.4 µg/mL (≈ 0.841 µM)
CSC(C)(C)C(NC(=O)c1ccc(C#Cc2ccc(CN3CCOCC3)nc2)cc1)C(=O)NO (stereo not drawn) [Compound 338] | 3.1 µg/mL (≈ 6.42 µM)
CCCNCc1ccc(C#Cc2ccc(C(=O)N[C@H](C(=O)NO)C(C)(C)S(C)(=O)=O)cc2)cc1 [Compound 265] | 6.3 µg/mL (≈ 13 µM)

test system: Mannheimia haemolytica MH 6374 (ATCC 33396, reference strain); test: MIC, broth-microdilution (CLSI VET01-A4), strain MH 6374; format: cell-based; details: Mannheimia haemolytica strain MH 6374, broth-microdilution; unit assumed
Method in brief: as §1

Structure (SMILES) | MIC MH 6374
Cc1ccc(CNCc2ccc(C#Cc3ccc(C(=O)N[C@H](C(=O)NO)C(C)(C)S(C)(=O)=O)cc3)cc2)cc1 [Compound 272] | 0.4 µg/mL (≈ 0.73 µM)
CC(=O)C(NC(=O)c1ccc(C#Cc2ccc(CNCc3ccncc3)cc2)cc1)C(=O)NO (stereo not drawn) [Compound 402] | 12.5 µg/mL (≈ 27.4 µM)
CC(C)([C@H](NC(=O)c1ccc(C#Cc2ccc(CNCc3cccnc3)cc2)cc1)C(=O)NO)S(C)(=O)=O [C.267] | 0.4 µg/mL (≈ 0.748 µM)
CC[C@H](C)[C@H](NC(=O)c1ccc(C#Cc2ccc(CNCc3cccs3)cc2)cc1)C(=O)NO [Compound 182] | 1.6 µg/mL (≈ 3.36 µM)
CSC(C)(C)C(NC(=O)c1ccc(C#Cc2ccc(CN3CCOCC3)nc2)cc1)C(=O)NO (stereo not drawn) [Compound 338] | 6.3 µg/mL (≈ 13.1 µM)
CCCNCc1ccc(C#Cc2ccc(C(=O)N[C@H](C(=O)NO)C(C)(C)S(C)(=O)=O)cc2)cc1 [Compound 265] | 6.3 µg/mL (≈ 13 µM)

test system: Mannheimia haemolytica MH 10720 (154, BRD field isolate); test: MIC, broth-microdilution (CLSI VET01-A4), strain MH 10720; format: cell-based; details: Mannheimia haemolytica strain MH 10720, broth-microdilution; unit assumed
Method in brief: as §1

Structure (SMILES) | MIC MH 10720
Cc1ccc(CNCc2ccc(C#Cc3ccc(C(=O)N[C@H](C(=O)NO)C(C)(C)S(C)(=O)=O)cc3)cc2)cc1 [Compound 272] | ≤ 0.1 µg/mL
CC(=O)C(NC(=O)c1ccc(C#Cc2ccc(CNCc3ccncc3)cc2)cc1)C(=O)NO (stereo not drawn) [Compound 402] | 6.3 µg/mL (≈ 13.8 µM)
CC(C)([C@H](NC(=O)c1ccc(C#Cc2ccc(CNCc3cccnc3)cc2)cc1)C(=O)NO)S(C)(=O)=O [C.267] | ≤ 0.1 µg/mL
CC[C@H](C)[C@H](NC(=O)c1ccc(C#Cc2ccc(CNCc3cccs3)cc2)cc1)C(=O)NO [Compound 182] | 0.2 µg/mL (≈ 0.421 µM)
CSC(C)(C)C(NC(=O)c1ccc(C#Cc2ccc(CN3CCOCC3)nc2)cc1)C(=O)NO (stereo not drawn) [Compound 338] | 0.8 µg/mL (≈ 1.66 µM)
CCCNCc1ccc(C#Cc2ccc(C(=O)N[C@H](C(=O)NO)C(C)(C)S(C)(=O)=O)cc2)cc1 [Compound 265] | 0.8 µg/mL (≈ 1.65 µM)

test system: Mannheimia haemolytica MH 12587 (1071, BRD field isolate, macrolide-resistance: erm+, E+); test: MIC, broth-microdilution (CLSI VET01-A4), strain MH 12587; format: cell-based; details: Mannheimia haemolytica strain MH 12587, broth-microdilution; unit assumed
Method in brief: as §1

Structure (SMILES) | MIC MH 12587
Cc1ccc(CNCc2ccc(C#Cc3ccc(C(=O)N[C@H](C(=O)NO)C(C)(C)S(C)(=O)=O)cc3)cc2)cc1 [Compound 272] | 1.6 µg/mL (≈ 2.92 µM)
CC(=O)C(NC(=O)c1ccc(C#Cc2ccc(CNCc3ccncc3)cc2)cc1)C(=O)NO (stereo not drawn) [Compound 402] | 1.6 µg/mL (≈ 3.5 µM)
CC(C)([C@H](NC(=O)c1ccc(C#Cc2ccc(CNCc3cccnc3)cc2)cc1)C(=O)NO)S(C)(=O)=O [C.267] | 1.6 µg/mL (≈ 2.99 µM)
CC[C@H](C)[C@H](NC(=O)c1ccc(C#Cc2ccc(CNCc3cccs3)cc2)cc1)C(=O)NO [Compound 182] | 1.6 µg/mL (≈ 3.36 µM)
CSC(C)(C)C(NC(=O)c1ccc(C#Cc2ccc(CN3CCOCC3)nc2)cc1)C(=O)NO (stereo not drawn) [Compound 338] | 6.3 µg/mL (≈ 13.1 µM)
CCCNCc1ccc(C#Cc2ccc(C(=O)N[C@H](C(=O)NO)C(C)(C)S(C)(=O)=O)cc2)cc1 [Compound 265] | 6.3 µg/mL (≈ 13 µM)

test system: Mannheimia haemolytica MH 13065 (XB0446-6003.9, BRD field isolate); test: MIC, broth-microdilution (CLSI VET01-A4), strain MH 13065; format: cell-based; details: Mannheimia haemolytica strain MH 13065, broth-microdilution; unit assumed
Method in brief: as §1

Structure (SMILES) | MIC MH 13065
Cc1ccc(CNCc2ccc(C#Cc3ccc(C(=O)N[C@H](C(=O)NO)C(C)(C)S(C)(=O)=O)cc3)cc2)cc1 [Compound 272] | 0.2 µg/mL (≈ 0.365 µM)
CC(=O)C(NC(=O)c1ccc(C#Cc2ccc(CNCc3ccncc3)cc2)cc1)C(=O)NO (stereo not drawn) [Compound 402] | 6.3 µg/mL (≈ 13.8 µM)
CC(C)([C@H](NC(=O)c1ccc(C#Cc2ccc(CNCc3cccnc3)cc2)cc1)C(=O)NO)S(C)(=O)=O [C.267] | 0.8 µg/mL (≈ 1.5 µM)
CC[C@H](C)[C@H](NC(=O)c1ccc(C#Cc2ccc(CNCc3cccs3)cc2)cc1)C(=O)NO [Compound 182] | 0.8 µg/mL (≈ 1.68 µM)
CSC(C)(C)C(NC(=O)c1ccc(C#Cc2ccc(CN3CCOCC3)nc2)cc1)C(=O)NO (stereo not drawn) [Compound 338] | 3.1 µg/mL (≈ 6.42 µM)
CCCNCc1ccc(C#Cc2ccc(C(=O)N[C@H](C(=O)NO)C(C)(C)S(C)(=O)=O)cc2)cc1 [Compound 265] | 3.1 µg/mL (≈ 6.38 µM)

test system: Mannheimia haemolytica MH 13093 (XB0472-6014.1, BRD field isolate); test: MIC, broth-microdilution (CLSI VET01-A4), strain MH 13093; format: cell-based; details: Mannheimia haemolytica strain MH 13093, broth-microdilution; unit assumed
Method in brief: as §1

Structure (SMILES) | MIC MH 13093
Cc1ccc(CNCc2ccc(C#Cc3ccc(C(=O)N[C@H](C(=O)NO)C(C)(C)S(C)(=O)=O)cc3)cc2)cc1 [Compound 272] | 0.8 µg/mL (≈ 1.46 µM)
CC(=O)C(NC(=O)c1ccc(C#Cc2ccc(CNCc3ccncc3)cc2)cc1)C(=O)NO (stereo not drawn) [Compound 402] | 6.3 µg/mL (≈ 13.8 µM)
CC(C)([C@H](NC(=O)c1ccc(C#Cc2ccc(CNCc3cccnc3)cc2)cc1)C(=O)NO)S(C)(=O)=O [C.267] | 0.8 µg/mL (≈ 1.5 µM)
CC[C@H](C)[C@H](NC(=O)c1ccc(C#Cc2ccc(CNCc3cccs3)cc2)cc1)C(=O)NO [Compound 182] | 0.8 µg/mL (≈ 1.68 µM)
CSC(C)(C)C(NC(=O)c1ccc(C#Cc2ccc(CN3CCOCC3)nc2)cc1)C(=O)NO (stereo not drawn) [Compound 338] | 6.3 µg/mL (≈ 13.1 µM)
CCCNCc1ccc(C#Cc2ccc(C(=O)N[C@H](C(=O)NO)C(C)(C)S(C)(=O)=O)cc2)cc1 [Compound 265] | 3.1 µg/mL (≈ 6.38 µM)

test system: Pasteurella multocida PM 6267 (P 2225 (L386), reference strain, mouse infection strain); test: MIC, broth-microdilution (CLSI VET01-A4), strain PM 6267; format: cell-based; details: Pasteurella multocida strain PM 6267, broth-microdilution; unit assumed
Method in brief: as §1

Structure (SMILES) | MIC PM 6267
Cc1ccc(CNCc2ccc(C#Cc3ccc(C(=O)N[C@H](C(=O)NO)C(C)(C)S(C)(=O)=O)cc3)cc2)cc1 [Compound 272] | ≤ 0.1 µg/mL
CC(=O)C(NC(=O)c1ccc(C#Cc2ccc(CNCc3ccncc3)cc2)cc1)C(=O)NO (stereo not drawn) [Compound 402] | 50 µg/mL (≈ 110 µM)
CC(C)([C@H](NC(=O)c1ccc(C#Cc2ccc(CNCc3cccnc3)cc2)cc1)C(=O)NO)S(C)(=O)=O [C.267] | ≤ 0.1 µg/mL
CC[C@H](C)[C@H](NC(=O)c1ccc(C#Cc2ccc(CNCc3cccs3)cc2)cc1)C(=O)NO [Compound 182] | 0.2 µg/mL (≈ 0.421 µM)
CSC(C)(C)C(NC(=O)c1ccc(C#Cc2ccc(CN3CCOCC3)nc2)cc1)C(=O)NO (stereo not drawn) [Compound 338] | 3.1 µg/mL (≈ 6.42 µM)
CCCNCc1ccc(C#Cc2ccc(C(=O)N[C@H](C(=O)NO)C(C)(C)S(C)(=O)=O)cc2)cc1 [Compound 265] | ≤ 0.1 µg/mL

test system: Pasteurella multocida PM 6391 (ATCC 43137, reference strain); test: MIC, broth-microdilution (CLSI VET01-A4), strain PM 6391; format: cell-based; details: Pasteurella multocida strain PM 6391, broth-microdilution; unit assumed
Method in brief: as §1

Structure (SMILES) | MIC PM 6391
Cc1ccc(CNCc2ccc(C#Cc3ccc(C(=O)N[C@H](C(=O)NO)C(C)(C)S(C)(=O)=O)cc3)cc2)cc1 [Compound 272] | 0.2 µg/mL (≈ 0.365 µM)
CC(=O)C(NC(=O)c1ccc(C#Cc2ccc(CNCc3ccncc3)cc2)cc1)C(=O)NO (stereo not drawn) [Compound 402] | 0.8 µg/mL (≈ 1.75 µM)
CC(C)([C@H](NC(=O)c1ccc(C#Cc2ccc(CNCc3cccnc3)cc2)cc1)C(=O)NO)S(C)(=O)=O [C.267] | ≤ 0.1 µg/mL
CC[C@H](C)[C@H](NC(=O)c1ccc(C#Cc2ccc(CNCc3cccs3)cc2)cc1)C(=O)NO [Compound 182] | 0.8 µg/mL (≈ 1.68 µM)
CSC(C)(C)C(NC(=O)c1ccc(C#Cc2ccc(CN3CCOCC3)nc2)cc1)C(=O)NO (stereo not drawn) [Compound 338] | 0.8 µg/mL (≈ 1.66 µM)
CCCNCc1ccc(C#Cc2ccc(C(=O)N[C@H](C(=O)NO)C(C)(C)S(C)(=O)=O)cc2)cc1 [Compound 265] | 0.8 µg/mL (≈ 1.65 µM)

test system: Pasteurella multocida PM 10775 (080130003051, BRD field isolate); test: MIC, broth-microdilution (CLSI VET01-A4), strain PM 10775; format: cell-based; details: Pasteurella multocida strain PM 10775, broth-microdilution; unit assumed
Method in brief: as §1

Structure (SMILES) | MIC PM 10775
Cc1ccc(CNCc2ccc(C#Cc3ccc(C(=O)N[C@H](C(=O)NO)C(C)(C)S(C)(=O)=O)cc3)cc2)cc1 [Compound 272] | ≤ 0.1 µg/mL
CC(=O)C(NC(=O)c1ccc(C#Cc2ccc(CNCc3ccncc3)cc2)cc1)C(=O)NO (stereo not drawn) [Compound 402] | 3.1 µg/mL (≈ 6.79 µM)
CC(C)([C@H](NC(=O)c1ccc(C#Cc2ccc(CNCc3cccnc3)cc2)cc1)C(=O)NO)S(C)(=O)=O [C.267] | ≤ 0.1 µg/mL
CC[C@H](C)[C@H](NC(=O)c1ccc(C#Cc2ccc(CNCc3cccs3)cc2)cc1)C(=O)NO [Compound 182] | ≤ 0.1 µg/mL
CSC(C)(C)C(NC(=O)c1ccc(C#Cc2ccc(CN3CCOCC3)nc2)cc1)C(=O)NO (stereo not drawn) [Compound 338] | ≤ 0.1 µg/mL
CCCNCc1ccc(C#Cc2ccc(C(=O)N[C@H](C(=O)NO)C(C)(C)S(C)(=O)=O)cc2)cc1 [Compound 265] | ≤ 0.1 µg/mL

test system: Pasteurella multocida PM 12080 (IV102277-0093, BRD field isolate); test: MIC, broth-microdilution (CLSI VET01-A4), strain PM 12080; format: cell-based; details: Pasteurella multocida strain PM 12080, broth-microdilution; unit assumed
Method in brief: as §1

Structure (SMILES) | MIC PM 12080
Cc1ccc(CNCc2ccc(C#Cc3ccc(C(=O)N[C@H](C(=O)NO)C(C)(C)S(C)(=O)=O)cc3)cc2)cc1 [Compound 272] | ≤ 0.1 µg/mL
CC(=O)C(NC(=O)c1ccc(C#Cc2ccc(CNCc3ccncc3)cc2)cc1)C(=O)NO (stereo not drawn) [Compound 402] | 1.6 µg/mL (≈ 3.5 µM)
CC(C)([C@H](NC(=O)c1ccc(C#Cc2ccc(CNCc3cccnc3)cc2)cc1)C(=O)NO)S(C)(=O)=O [C.267] | ≤ 0.1 µg/mL
CC[C@H](C)[C@H](NC(=O)c1ccc(C#Cc2ccc(CNCc3cccs3)cc2)cc1)C(=O)NO [Compound 182] | 0.2 µg/mL (≈ 0.421 µM)
CSC(C)(C)C(NC(=O)c1ccc(C#Cc2ccc(CN3CCOCC3)nc2)cc1)C(=O)NO (stereo not drawn) [Compound 338] | 0.4 µg/mL (≈ 0.829 µM)
CCCNCc1ccc(C#Cc2ccc(C(=O)N[C@H](C(=O)NO)C(C)(C)S(C)(=O)=O)cc2)cc1 [Compound 265] | 0.4 µg/mL (≈ 0.824 µM)
